Assay results: PubChem BioAssay AID1963874 (Molecular Pharmacology Branch, DTP, NCI, 2024)

Test system: 253994-281-T-J1-PDC KRAS-mutant spheroids with HUVEC/MSC, viability
Test: Anticancer human tumor 253994-281-T-J1-PDC patient-derived colorectal carcinoma cell line growth inhibition [KRAS2]
Settings: for viability, T/C: stronger effect = lower value
Outline: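 KRAS-mutant tumor cells were grown as spheroids with HUVEC endothelial cells and human MSCs as stroma. Targeted agents were tested alone and with KRAS pathway inhibitors. Doses started at or near clinical Cmax, or 10 microM, descending half-log.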

[1] = curve of first compound, second compound 0.1 µM
[2] = curve of first compound, second compound 0.316 µM
[3] = curve of first compound, second compound 1 µM
[4] = curve of first compound, second compound 3.16 µM
[5] = curve of first compound, second compound 10 µM
[6] = second compound 0.1 µM, first compound 0.0316 µM
[7] = second compound 0.1 µM, first compound 0.1 µM
[8] = second compound 0.316 µM, first compound 0.0316 µM
[9] = second compound 0.316 µM, first compound 0.1 µM
[10] = second compound 1 µM, first compound 0.0316 µM
[11] = second compound 1 µM, first compound 0.1 µM
[12] = second compound 3.16 µM, first compound 0.0316 µM
[13] = second compound 3.16 µM, first compound 0.1 µM
[14] = second compound 10 µM, first compound 0.0316 µM
[15] = second compound 10 µM, first compound 0.1 µM
[16] = second compound 0.1 µM, first compound 0.316 µM
[17] = second compound 0.1 µM, first compound 1 µM
[18] = second compound 0.1 µM, first compound 3.16 µM
[19] = second compound 0.1 µM, first compound 10 µM
[20] = second compound 0.316 µM, first compound 0.316 µM
[21] = second compound 0.316 µM, first compound 1 µM
[22] = second compound 0.316 µM, first compound 3.16 µM
[23] = second compound 0.316 µM, first compound 10 µM
[24] = second compound 1 µM, first compound 0.316 µM
[25] = second compound 1 µM, first compound 1 µM
[26] = second compound 1 µM, first compound 3.16 µM
[27] = second compound 1 µM, first compound 10 µM
[28] = second compound 3.16 µM, first compound 0.316 µM
[29] = second compound 3.16 µM, first compound 1 µM
[30] = second compound 3.16 µM, first compound 3.16 µM
[31] = second compound 3.16 µM, first compound 10 µM
[32] = second compound 10 µM, first compound 0.316 µM
[33] = second compound 10 µM, first compound 1 µM
[34] = second compound 10 µM, first compound 3.16 µM
[35] = second compound 10 µM, first compound 10 µM
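Further: spheroids exposed to agents for seven days before readout.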
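Wherever viability, T/C is given: percent of DMSO vehicle control viability.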

CN(C)C/C=C/C(=O)Nc1cc2c(Nc3ccc(F)c(Cl)c3)ncnc2cc1O[C@H]1CCOC1 + COc1cc2nc(C)nc(NC(C)c3cc(N)cc(C(F)(F)F)c3)c2cc1OC1CCOC1
IC50 [1]: > 100 nM
IC50 [2]: > 100 nM
IC50 [3]: > 100 nM
IC50 [4]: > 100 nM
IC50 [5]: > 100 nM
viability, T/C (second compound 0.1 µM, first compound 0.000316 µM): 100%
viability, T/C (second compound 0.1 µM, first compound 0.001 µM): 98.2%
viability, T/C (second compound 0.1 µM, first compound 0.00316 µM): 108%
viability, T/C (second compound 0.1 µM, first compound 0.01 µM): 85.8%
viability, T/C [6]: 90%
viability, T/C [7]: 67.7%
viability, T/C (second compound 0.316 µM, first compound 0.000316 µM): 86.3%
viability, T/C (second compound 0.316 µM, first compound 0.001 µM): 97.8%
viability, T/C (second compound 0.316 µM, first compound 0.00316 µM): 86.8%
viability, T/C (second compound 0.316 µM, first compound 0.01 µM): 81.5%
viability, T/C [8]: 73.5%
viability, T/C [9]: 57.8%
viability, T/C (second compound 1 µM, first compound 0.000316 µM): 84.4%
viability, T/C (second compound 1 µM, first compound 0.001 µM): 88.7%
viability, T/C (second compound 1 µM, first compound 0.00316 µM): 116%
viability, T/C (second compound 1 µM, first compound 0.01 µM): 90%
viability, T/C [10]: 91.2%
viability, T/C [11]: 69.8%
viability, T/C (second compound 3.16 µM, first compound 0.000316 µM): 94.8%
viability, T/C (second compound 3.16 µM, first compound 0.001 µM): 87.4%
viability, T/C (second compound 3.16 µM, first compound 0.00316 µM): 81.3%
viability, T/C (second compound 3.16 µM, first compound 0.01 µM): 86.8%
viability, T/C [12]: 61.2%
viability, T/C [13]: 55.2%
viability, T/C (second compound 10 µM, first compound 0.000316 µM): 83.5%
viability, T/C (second compound 10 µM, first compound 0.001 µM): 84.1%
viability, T/C (second compound 10 µM, first compound 0.00316 µM): 82.9%
viability, T/C (second compound 10 µM, first compound 0.01 µM): 79.2%
viability, T/C [14]: 68.8%
viability, T/C [15]: 54.5%

Cn1nccc1Nc1nccc(-c2cc3c(s2)C(C)(C)N(CCN2CCOCC2)C3=O)n1
viability, T/C (compound 0.0316 µM): 99.1% [middle of 5 runs]
viability, T/C (compound 0.1 µM): 96.2% [middle of 5 runs]
viability, T/C (compound 0.316 µM): 100% [middle of 4 runs]
viability, T/C (compound 1 µM): 84.1% [middle of 5 runs]
viability, T/C (compound 3.16 µM): 53.9% [middle of 5 runs]
viability, T/C (compound 10 µM): 29.3% [middle of 5 runs]
IC50 (curve of compound): 3.52 µM [middle of 5 runs]

Cn1nccc1Nc1nccc(-c2cc3c(s2)C(C)(C)N(CCN2CCOCC2)C3=O)n1 + CC1OCC2(CCN(c3cnc(Sc4ccnc(N)c4Cl)c(N)n3)CC2)C1N
IC50 [1]: 1460 nM
IC50 [2]: 745 nM
IC50 [3]: 280 nM
IC50 [4]: 110 nM
IC50 [5]: < 31.6 nM
viability, T/C [6]: 81.1%
viability, T/C [7]: 82.9%
viability, T/C [16]: 74.9%
viability, T/C [17]: 59%
viability, T/C [18]: 32.3%
viability, T/C [19]: 18.9%
viability, T/C [8]: 77%
viability, T/C [9]: 79.2%
viability, T/C [20]: 63.1%
viability, T/C [21]: 45.6%
viability, T/C [22]: 26%
viability, T/C [23]: 17.9%
viability, T/C [10]: 68.3%
viability, T/C [11]: 64.6%
viability, T/C [24]: 48.3%
viability, T/C [25]: 22.5%
viability, T/C [26]: 13.2%
viability, T/C [27]: 15%
viability, T/C [12]: 60.8%
viability, T/C [13]: 50.2%
viability, T/C [28]: 34.8%
viability, T/C [29]: 15.3%
viability, T/C [30]: 10%
viability, T/C [31]: 8.2%
viability, T/C [14]: 39.8%
viability, T/C [15]: 28.4%
viability, T/C [32]: 15.4%
viability, T/C [33]: 8.1%
viability, T/C [34]: 4.83%
viability, T/C [35]: 6.14%

O=C(c1cc(Cc2n[nH]c(=O)c3ccccc23)ccc1F)N1CCN(C(=O)C2CC2)CC1 + CC1OCC2(CCN(c3cnc(Sc4ccnc(N)c4Cl)c(N)n3)CC2)C1N
IC50 [1]: > 10000 nM
IC50 [2]: > 10000 nM
IC50 [3]: > 10000 nM
IC50 [4]: < 31.6 nM
IC50 [5]: 655 nM
viability, T/C [6]: 99%
viability, T/C [7]: 81.4%
viability, T/C [16]: 93.7%
viability, T/C [17]: 90.7%
viability, T/C [18]: 84.2%
viability, T/C [19]: 95.5%
viability, T/C [8]: 79.8%
viability, T/C [9]: 65.7%
viability, T/C [20]: 62.9%
viability, T/C [21]: 120%
viability, T/C [22]: 84.6%
viability, T/C [23]: 79.5%
viability, T/C [10]: 93.3%
viability, T/C [11]: 94.1%
viability, T/C [24]: 93.2%
viability, T/C [25]: 81%
viability, T/C [26]: 80.2%
viability, T/C [27]: 90.7%
viability, T/C [12]: 52.8%
viability, T/C [13]: 46.2%
viability, T/C [28]: 46.5%
viability, T/C [29]: 48.4%
viability, T/C [30]: 45.6%
viability, T/C [31]: 57.6%
viability, T/C [14]: 47.2%
viability, T/C [15]: 45.5%
viability, T/C [32]: 115%
viability, T/C [33]: 38.8%
viability, T/C [34]: 31.6%
viability, T/C [35]: 30.4%

CCNC(=O)CC1N=C(c2ccc(Cl)cc2)c2cc(OC)ccc2-n2c(C)nnc21 (centres undefined) + CNCc1ccccc1-c1csc(C(C)Nc2nc(C)nc3cc(OC)c(OC)cc23)c1
IC50 [1]: > 10000 nM
IC50 [2]: > 10000 nM
IC50 [3]: > 10000 nM
IC50 [4]: 64 nM
IC50 [5]: < 31.6 nM
viability, T/C [6]: 106%
viability, T/C [7]: 103%
viability, T/C [16]: 86.8%
viability, T/C [17]: 85.8%
viability, T/C [18]: 91.7%
viability, T/C [19]: 88.9%
viability, T/C [8]: 110%
viability, T/C [9]: 100%
viability, T/C [20]: 101%
viability, T/C [21]: 90%
viability, T/C [22]: 87.3%
viability, T/C [23]: 78.1%
viability, T/C [10]: 87.3%
viability, T/C [11]: 106%
viability, T/C [24]: 103%
viability, T/C [25]: 88.4%
viability, T/C [26]: 79%
viability, T/C [27]: 64.3%
viability, T/C [12]: 48.9%
viability, T/C [13]: 53.7%
viability, T/C [28]: 42.8%
viability, T/C [29]: 38.2%
viability, T/C [30]: 34.8%
viability, T/C [31]: 27.7%
viability, T/C [14]: 0.26%
viability, T/C [15]: 0.24%
viability, T/C [32]: 0.23%
viability, T/C [33]: 0.18%
viability, T/C [34]: 0.18%
viability, T/C [35]: 0.29%

CC(=O)OC12COC1CC(O)C1(C)C(=O)C(O)C3=C(C)C(OC(=O)C(O)C(NC(=O)OC(C)(C)C)c4ccccc4)CC(O)(C(OC(=O)c4ccccc4)C21)C3(C)C (centres undefined)
viability, T/C (compound 0.01 µM): 79.1% [middle of 5 runs]
viability, T/C (compound 0.0316 µM): 49.9% [middle of 5 runs]
viability, T/C (compound 0.1 µM): 32.9% [middle of 5 runs]
viability, T/C (compound 0.316 µM): 29.5% [middle of 5 runs]
viability, T/C (compound 1 µM): 28.2% [middle of 5 runs]
viability, T/C (compound 3.16 µM): 26.4% [middle of 5 runs]
IC50 (curve of compound): 31.5 nM [middle of 5 runs]

COC(=O)c1ccc2c(C(=Nc3ccc(N(C)C(=O)CN4CCN(C)CC4)cc3)c3ccccc3)c(O)[nH]c2c1 + CC1OCC2(CCN(c3cnc(Sc4ccnc(N)c4Cl)c(N)n3)CC2)C1N
IC50 [1]: > 10000 nM
IC50 [2]: 3480 nM
IC50 [3]: 1460 nM
IC50 [4]: 156 nM
IC50 [5]: < 31.6 nM
viability, T/C [6]: 97.8%
viability, T/C [7]: 87.2%
viability, T/C [16]: 82.7%
viability, T/C [17]: 85.3%
viability, T/C [18]: 81.8%
viability, T/C [19]: 70.7%
viability, T/C [8]: 82.7%
viability, T/C [9]: 67%
viability, T/C [20]: 68.9%
viability, T/C [21]: 85.2%
viability, T/C [22]: 53.2%
viability, T/C [23]: 15%
viability, T/C [10]: 53.8%
viability, T/C [11]: 50.9%
viability, T/C [24]: 62.1%
viability, T/C [25]: 51.7%
viability, T/C [26]: 43.3%
viability, T/C [27]: 17.8%
viability, T/C [12]: 56.1%
viability, T/C [13]: 52%
viability, T/C [28]: 42.9%
viability, T/C [29]: 40.7%
viability, T/C [30]: 26.8%
viability, T/C [31]: 1.64%
viability, T/C [14]: 35%
viability, T/C [15]: 35%
viability, T/C [32]: 31.4%
viability, T/C [33]: 20%
viability, T/C [34]: 4.21%
viability, T/C [35]: 0.83%
